The source of these data is patent US9353051B2, “Antiviral drugs for treatment or prevention of dengue infection” (Siga Technologies Inc., priority 2007, dated 2016).

Like-named read-outs stand apart in the source and are kept apart here.

One may read the EC90 as the concentration needed for an effect of 90%.

One series deals with Den-3. The series is described as follows: viral yield assay against Den-3. The series is classed as cell-based. Conditions: Dengue virus.
Series [1] relates to dengue-2 in C6/36 mosquito cells. The series is described as follows: viral yield assay against dengue-2 in C6/36 mosquito cells. It counts as cell-based. Conditions: Dengue virus, dengue-2, C6/36 mosquito cells, read-out: Specificity C6/36. On the procedure: (§1) Select compounds were also tested for more broad spectrum activity against other members of the Flaviviridae family including Modoc, which is a murine flavivirus, as well as Bovine Viral Diarrhea Virus (BVDV), which is a Pestivirus. Since dengue virus is able to replicate in multiple cell lines and to ensure that the activity seen in vero cells is consistent, select compounds were also tested for their effective concentration in a viral yield assay against dengue-2 in C6/36 mosquito cells.

Another series concerns Den-1. The series is described as follows: viral yield assay against Den-1. The series is classed as cell-based. Conditions: Dengue virus.
The test system of the next series is Den-4. The series is described as follows: viral yield assay against Den-4. The series is classed as cell-based. Conditions: Dengue virus.
Series [2] relates to Dengue-2 (Strain New Guinea C). Nature of the series: viral yield assay against Dengue-2 in Vero cells. Conditions: Dengue virus; for EC90: read-out: EC90 Yield Den-2. The series is classed as cell-based. In a few lines:
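Vero cells infected with dengue-2 at MOI 0.1 were treated with compound (DMSO control) at 37° C., harvested 48 h post infection and titered on Vero cells.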

A further series deals with Modoc. The series is described as follows: specificity: activity against Modoc. The series is classed as cell-based, murine flavivirus. Conditions: Orthoflavivirus, in Mus musculus. How it is done:
as §1

The test system of series [3] is Bovine Viral Diarrhea Virus (BVDV). The series is described as follows: specificity: activity against BVDV. It counts as cell-based. On the procedure: as §1
The subject of series [4] is dengue. Conditions: cited from earlier work.
Series [5] relates to dengue. Conditions: mouse model; cited from earlier work.
Setting [6] is: Vero cells, MOI 0.1, harvested 48 hours post infection, read-out: Activity (anti-dengue 2 viral activity, EC50).
The mark [7] stands for this setting: viral yield assay, Vero cells, read-out: EC50 Yield Den-2.
The mark [8] stands for this setting: Bovine viral diarrhea virus isolates and strains, read-out: Specificity BVDV.
Where [9] appears, read: Bovine viral diarrhea virus isolates and strains; read-out: Specificity BVDV.

With `CCN(CC)S(=O)(=O)c1ccc(NC(=O)Cn2cnc3ccccc3c2=O)cc1` [Compound 1, N-(4-Diethylsulfamoyl-phenyl)-2-(4-oxo-4H-quinazolin-3-yl)-acetamide], the EC50 with Den-3 was 1 µM; in [1], 0.3 µM; with Den-1 it was 4.3 µM; with Den-4 it was 1.7 µM; in series [2] (setting [6]) it was below 1 µM; in [2] (setting [7]) it was 0.3 µM. Further, the EC50 is 1.2 µM in the series on Modoc and above 50 µM in series [3] (setting [8]). Further, the 90% effect concentration (EC90) was 8.2 µM in the series on Den-3; 10.7 µM in the series with Den-1; 4.1 µM with Den-4; 5.2 µM in series [2] (viral yield assay, Vero cells).
`CCN(CC)S(=O)(=O)c1ccc(OC)c(NC(=O)C(C)C)c1` [Compound 2, N-(5-Diethylsulfamoyl-2-methoxy-phenyl)-isobutyramide]: the EC50 in the series on Den-3 is 5.5 µM; in series [1] it was 0.7 µM; with Den-1, 7.6 µM; in the series on Den-4 it was 2.1 µM; in series [2] (setting [6]), below 1 µM; in series [2] (setting [7]), 0.3 µM. Moreover, the EC50 with Modoc was 6.2 µM; in [3] (setting [8]) it was above 50 µM. The EC90 with Den-3 turned out to be 13.3 µM; in the series on Den-1 it was 8.9 µM; in the series with Den-4 it was 12.5 µM; in series [2] (viral yield assay, Vero cells) it was 4.1 µM.
For the compound `CCN(CC)S(=O)(=O)c1ccc(NC(=O)Cn2nnc3ccccc3c2=O)cc1` [Compound 3, N-(4-Diethylsulfamoyl-phenyl)-2-(4-oxo-4H-benzo[d][1,2,3]triazin-3-yl)-acetamide], the EC50 in the series on Den-3 is 1 µM; in the series on Den-1 it was 1.3 µM; in the series with Den-4 it was 2.3 µM; in series [2] (setting [6]), 1 to 10 µM; in [2] (setting [7]), 4 µM; in the series on Modoc it was 3.1 µM. Also, in series [3] (setting [8]), the EC50 was above 50 µM. Besides, the EC90 was 12.1 µM with Den-3; 5.1 µM with Den-1; 10 µM in the series on Den-4; 10 µM in series [2] (viral yield assay, Vero cells).
With `CCN(CC)S(=O)(=O)c1ccc(NC(=O)Cn2cnc3c2c(=O)n(C)c(=O)n3C)cc1` [Compound 4, N-(4-Diethylsulfamoyl-phenyl)-2-(1,3-dimethyl-2,6-dioxo-1,2,3,6-tetrahydro-purin-7-yl)-acetamide], the EC50 was 13.5 µM with Den-3; 4.3 µM in the series on Den-4; 1 to 10 µM in series [2] (setting [6]); 7.8 µM in series [2] (setting [7]); above 25 µM with Modoc; above 50 µM in series [3] (setting [9]). The EC90 is 22.6 µM in the series on Den-3; 22.7 µM with Den-4; 8.9 µM in series [2] (viral yield assay, Vero cells).
Turning to `CC(C)N(C)S(=O)(=O)c1ccc(NC(=O)Cn2cnc3ccc(Cl)cc3c2=O)cc1` [Compound 6, 2-(6-Chloro-4-oxo-4H-quinazolin-3-yl)-N-[4-(isopropyl-methyl-sulfamoyl)-phenyl]-acetamide], the figures for the EC50 in [2] (setting [6]), in [2] (setting [7]) and in series [3] (setting [9]) were 1 to 10 µM, 1.8 µM and 64 µM, respectively. Further, the EC90 in [2] (viral yield assay, Vero cells) was determined as 43.2 µM.
The like results for `CC(C)N(C)S(=O)(=O)c1ccc(NC(=O)Cn2cnc3cc(F)ccc3c2=O)cc1` [Compound 7, 2-(7-Fluoro-4-oxo-4H-quinazolin-3-yl)-N-[4-(isopropyl-methyl-sulfamoyl)-phenyl]-acetamide] were, in that order, 1 to 10 µM, 4.6 µM, above 50 µM and above 50 µM.
As for `CCN(CC)S(=O)(=O)c1ccc(NC(=O)Cn2[nH]c(=O)c3ccccc3c2=O)cc1` [Compound 8, N-(4-Diethylsulfamoyl-phenyl)-2-(1,4-dioxo-3,4-dihydro-1H-phthalazin-2-yl)-acetamide], the results for the EC50 in series [2] (setting [6]), in [2] (setting [7]) and in series [3] (setting [9]) were 1 to 10 µM, 2.8 µM and above 50 µM, respectively. For the same compound, the EC90 in series [2] (viral yield assay, Vero cells) stood at 25.6 µM.
The like results for `CCN(CC)S(=O)(=O)c1ccc(NC(=O)CN2C(=O)c3cccc4cccc(c34)C2=O)cc1` [Compound 9, N-(4-Diethylsulfamoyl-phenyl)-2-(1,3-dioxo-1H,3H-benzo[de]isoquinolin-2-yl)-acetamide] were, in that order, 1 to 10 µM, 1.3 µM, above 50 µM and 7.3 µM.
For `CCN(CC)S(=O)(=O)c1ccc(C)c(NC(=O)Cn2cnc3cc([N+](=O)[O-])ccc3c2=O)c1` [Compound 12, N-(5-Diethylsulfamoyl-2-methyl-phenyl)-2-(7-nitro-4-oxo-4H-quinazolin-3-yl)-acetamide], the EC50 is 2.9 µM in the series on Den-3; above 25 µM with Den-1; 5.2 µM in the series with Den-4; 1 to 10 µM in series [2] (Vero, 48 h, read-out: Activity (anti-dengue 2 viral activity, EC50)); 11.1 µM in [2] (setting [7]); above 25 µM in the series with Modoc. In [3] (setting [8]), the EC50 was above 50 µM. In addition, the EC90 in the series on Den-3 is above 25 µM; with Den-1, above 25 µM; in the series on Den-4, 14.6 µM; in [2] (viral yield assay, Vero cells), above 25 µM.
`CCN(CC)S(=O)(=O)c1ccc(OC)c(NC(=O)Cn2cnc3c2c(=O)n(C)c(=O)n3C)c1` [Compound 13, N-(5-Diethylsulfamoyl-2-methoxy-phenyl)-2-(1,3-dimethyl-2,6-dioxo-1,2,3,6-tetrahydro-purin-7-yl)-acetamide]: the EC50 was 4.1 µM in the series on Den-3; 2.1 µM in series [1]; 7.1 µM in the series with Den-1; 1.9 µM with Den-4; 1 to 10 µM in series [2] (setting [6]); 2.4 µM in series [2] (setting [7]). Besides, the EC50 is above 25 µM with Modoc and 47.7 µM in [3] (setting [8]). Also, the concentration for an effect of 90% (EC90) in the series on Den-3 was found to be 9.4 µM; in the series on Den-1 it was 8.5 µM; with Den-4, 9.2 µM; in series [2] (viral yield assay, Vero cells), 10.3 µM.
Regarding `CCCC(=O)Nc1cc(S(=O)(=O)N(CC)CC)ccc1OC` [Compound 14, N-(5-Diethylsulfamoyl-2-methoxy-phenyl)-butyramide], the EC50 with Den-3 was 4.2 µM; in the series with Den-1, above 25 µM; in the series on Den-4, 4.8 µM; in series [2] (setting [6]) it was 1 to 10 µM; in [2] (setting [7]), 3.6 µM; with Modoc it was above 25 µM. In [3] (setting [9]), the EC50 was above 50 µM. The EC90 in the series on Den-3 is 14.9 µM; in the series on Den-1, above 25 µM; in the series on Den-4, 11.1 µM; in series [2] (viral yield assay, Vero cells) it was 27.5 µM.
`CCN(CC)S(=O)(=O)c1ccc(OC)c(NC(=O)CC(C)C)c1` [Compound 15, N-(5-Diethylsulfamoyl-2-methoxy-phenyl)-3-methyl-butyramide]: the EC50 is 1.2 µM in the series with Den-4; 1 to 10 µM in series [2] (setting [6]); 2.4 µM in series [2] (setting [7]); 10.1 µM in the series with Modoc; above 50 µM in series [3] (setting [8]). In addition, the EC90 was 37.2 µM in the series with Den-4 and above 100 µM in series [2] (viral yield assay, Vero cells).
For `CCN(CC)S(=O)(=O)c1ccc(OC)c(NC(=O)Cc2ccccc2)c1` [Compound 16, N-(5-Diethylsulfamoyl-2-methoxy-phenyl)-2-phenyl-acetamide], the EC50 in the series on Den-4 was 2.1 µM; in series [2] (setting [6]), 1 to 10 µM; in series [2] (setting [7]) it was 5.8 µM; with Modoc, 3.6 µM; in series [3] (setting [8]), above 50 µM. The concentration for an effect of 90% (EC90) in the series with Den-4 was 6.4 µM; in series [2] (viral yield assay, Vero cells), 10.3 µM.
In the case of `CCCCC(=O)Nc1cc(S(=O)(=O)N(CC)CC)ccc1OC` [Compound 21, Pentanoic acid (5-diethylsulfamoyl-2-methoxy-phenyl)-amide], the EC50 with Den-4 was 8.2 µM; in [2] (setting [6]), 10 to 25 µM; in series [2] (setting [7]), 14.2 µM; in the series on Modoc, 6 µM; in series [3] (setting [8]), above 50 µM. Besides, the EC90 is 12 µM in the series with Den-4 and 24.1 µM in series [2] (viral yield assay, Vero cells).
Regarding `NC(=O)c1ncn([C@@H]2O[C@H](CO)[C@@H](O)[C@H]2O)n1` [ribavirin], the adverse effects induced result with dengue [4] (animal models of dengue (mouse or rhesus monkey, not specified)) is “induced anemia and thrombocytosis”. Further, the protection against dengue entry in the series on dengue [4] (rhesus monkey model) and with dengue [5] was “did not show protection” throughout.
